Source: patent EP0878472A1, “Reactive radiation- or thermally- initiated cationically-curable epoxide monomers and compositions made from those monomers” (National Starch and Chemical Investment Holding Corporation, priority 1997, dated 1998)
Each block holds one compound with its values, some of them ahead of it.

Experiments:
Format in all cases: physicochemical
[1] = Storage stability of the epoxide at room temperature
Experimental: The epoxidation may be performed on the starting olefinic compound by any suitable method known in the art, but is preferably conducted through a potassium monopersulfate/acetone oxidation of the olefinic portion of the corresponding styrene. The styrene compound is suspended in a mixture of acetone and water, and buffered with sodium bicarbonate, which serves to prevent decomposition of the resultant oxides. This suspension is then treated with an excess of the oxidant, provided as an aqueous solution of the monopersulfate compound (2KHSO5.KHSO4.K2SO4,) (Oxone®, a product of DuPont). The recovered solution is partitioned with ethyl acetate, toluene, methylene chloride, or other suitable solvent. Workup consists of washing the organic layer with water followed by drying with a non-acidic drying agent (e.g., anhydrous […]). Filtering this mixture, followed by removal of organic solvent in vacuo, affords the desired epoxide in high yield without further purification. […]
A suspension of 1 equivalent of 1,3-diisopropenyl benzene (5mL, 0.925g/mL, 29.2mmol) and 6 equivalents of sodium bicarbonate (15.9g, 190mmol) in a 2 : 1 mixture (volume : volume) of acetone : water (total 450mL) was treated with an aqueous solution containing 2 equivalents of potassium persulfate (Oxone®) (36.5g, 59.3mmol). […] The pH was monitored during this time and remained neutral. […]

[2] = Photo-DSC analysis of various styrene oxides formulated with photoinitiator and diol (Example 6)
Experimental: A sample in the range of 1.5 to 3.0 mg for each composition was exposed to UV radiation and the rate of cure followed by a DPA-7 Perkin-Elmer Photo-Differential Scanning Calorimeter (P-DSC). Each sample was equilibrated to constant temperature (25 °C) on the Calorimeter for one minute and then exposed to irradiation for a total of four minutes using a 100 Watt Mercury short arc lamp. […] In the Tables, Tmax is the time it took to reach the peak maximum exotherm in seconds, and ΔH is the exotherm of the reaction in kJoules per mole of epoxy, measured as the area over the cure from the four minute baseline back to the onset of exotherm.
Photo-DSC of various styrene oxides was conducted by formulating the epoxides with a photoinitiator and a diol.

[3] = Photo-DSC (P-DSC) UV cure of epoxide/diol adhesive compositions (Example 3)
Experimental: These compositions were compared to control formulations containing a cycloaliphatic epoxide obtained from Union Carbide, as product ERL-4221, which has the structure: [drawing 5]
A sample in the range of 1.5 to 3.0 mg for each composition was exposed to UV radiation and the rate of cure followed by a DPA-7 Perkin-Elmer Photo-Differential Scanning Calorimeter (P-DSC). Each sample was equilibrated to constant temperature (25 °C) on the Calorimeter for one minute and then exposed to irradiation for a total of four minutes using a 100 Watt Mercury short arc lamp. […] The diol used in the compositions, the molar ratio of epoxy to diol, and the DSC results are set out in Table 1 for the inventive styrene epoxy, and in Table 2 for the cycloaliphatic epoxy. In the Tables, Tmax is the time it took to reach the peak maximum exotherm in seconds, and ΔH is the exotherm of the reaction in kJoules per mole of epoxy, measured as the area over the cure from the four minute baseline back to the onset of exotherm.
The time the reaction takes to reach Tmax is a direct indication of the speed of the reaction; thus, the shorter the time (i.e. the sharper the peak), the faster the cure reaction for the epoxy, which is a desirable property for these adhesive compositions. In the following tables, the peak are designated either sharp or broad; for purposes herein, if more than half the exotherm occurred in the first 30 seconds, the peak was defined as sharp, and conversely, if less than half the exotherm occurred in the first 30 seconds, the peak was defined as broad.
The ΔH values are a direct indication of the degree of epoxy ring opening, with the more negative numbers reflecting the higher degree of conversion of the epoxy.

[4] = Stepanol PS-4002, Epoxy:Diol 1:1
[5] = Stepanol PS-4002, Epoxy:Diol 3:1

Compound: 1,3-diisopropenylbenzene dioxide [Example 1]
- advancement of the epoxide ([1]; after 13 days at room temperature): no advancement
- ΔH ([2]; Tone polyol, Epoxy:Diol 1:1): -72.8 kJ/Mole EPOXIDE
- ΔH ([2]; no diol): -57.8 kJ/Mole EPOXIDE
- Tmax ([3]; MP-diol, Epoxy:Diol 1:1): 4.35 s
- ΔH ([3]; MP-diol, Epoxy:Diol 1:1): -77.4 kJ/mole epoxide
- Tmax ([3]; MP-diol, Epoxy:Diol 3:1): 2.94 s
- ΔH ([3]; MP-diol, Epoxy:Diol 3:1): -58.2 kJ/mole epoxide
- Tmax ([3]; Rucoflex 107, Epoxy:Diol 1:1): 4.32 s
- ΔH ([3]; Rucoflex 107, Epoxy:Diol 1:1): -84.1 kJ/mole epoxide
- Tmax ([3]; Rucoflex 107, Epoxy:Diol 3:1): 4.20 s
- ΔH ([3]; Rucoflex 107, Epoxy:Diol 3:1): -79.1 kJ/mole epoxide
- Tmax [3, 4]: 6.12 s
- ΔH [3, 4]: -76.0 kJ/mole epoxide
- Tmax [3, 5]: 4.83 s
- ΔH [3, 5]: -62.6 kJ/mole epoxide
- Tmax ([3]; SynFac 8031, Epoxy:Diol 1:1): 4.74 s
- ΔH ([3]; SynFac 8031, Epoxy:Diol 1:1): -71.8 kJ/mole epoxide
- Tmax ([3]; SynFac 8031, Epoxy:Diol 3:1): 3.57 s
- ΔH ([3]; SynFac 8031, Epoxy:Diol 3:1): -65.5 kJ/mole epoxide
- Tmax ([3]; Tone 0201, Epoxy:Diol 1:1): 3.57 s
- ΔH ([3]; Tone 0201, Epoxy:Diol 1:1): -73.4 kJ/mole epoxide
- Tmax ([3]; Tone 0201, Epoxy:Diol 1:3): 4.59 s
- ΔH ([3]; Tone 0201, Epoxy:Diol 1:3): -75.9 kJ/mole epoxide
- Tmax ([3]; Tone 0201, Epoxy:Diol 3:1): 3.96 s
- ΔH ([3]; Tone 0201, Epoxy:Diol 3:1): -56.4 kJ/mole epoxide
- Tmax ([3]; no diol, 1% UVI-6974, 25 °C): 3.84 s
- ΔH ([3]; no diol, 1% UVI-6974, 25 °C): -57.8 kJ/mole epoxide

Compound: CC1(c2ccccc2)CO1 (stereo not drawn) [alpha methyl styrene epoxy]
- ΔH ([2]; MP-diol, Epoxy:Diol 1:1): -80.9 kJ/Mole EPOXIDE
- ΔH ([2]; MP-diol, Epoxy:Diol 3:1): -56.4 kJ/Mole EPOXIDE
- ΔH ([2]; Tone polyol, Epoxy:Diol 1:1): -76.5 kJ/Mole EPOXIDE
- ΔH ([2]; Tone polyol, Epoxy:Diol 3:1): -66.7 kJ/Mole EPOXIDE
- ΔH ([2]; no diol): -53.3 kJ/Mole EPOXIDE

Compound: CC1OC1c1ccccc1 (stereo not drawn) [beta-methyl styrene epoxy, beta-methyl styrene mono-epoxide]
- ΔH ([2]; MP-diol, Epoxy:Diol 1:1): -102.6 kJ/Mole EPOXIDE
- ΔH ([2]; MP-diol, Epoxy:Diol 3:1): -75.7 kJ/Mole EPOXIDE
- ΔH ([2]; Tone polyol, Epoxy:Diol 1:1): -80.5 kJ/Mole EPOXIDE
- ΔH ([2]; Tone polyol, Epoxy:Diol 3:1): -54.5 kJ/Mole EPOXIDE
- ΔH ([2]; no diol): -85.4 kJ/Mole EPOXIDE

Compound: COc1cc(C2OC2C)ccc1OC(C)=O (stereo not drawn) [isoeugenol acetate epoxy, isoeugenol acetate epoxide]
- ΔH ([2]; MP-diol, Epoxy:Diol 1:1): -70,1 kJ/Mole EPOXIDE
- ΔH ([2]; MP-diol, Epoxy:Diol 3:1): -67.6 kJ/Mole EPOXIDE
- ΔH ([2]; Tone polyol, Epoxy:Diol 1:1): -75.0 kJ/Mole EPOXIDE
- ΔH ([2]; Tone polyol, Epoxy:Diol 3:1): -65.0 kJ/Mole EPOXIDE
- ΔH ([2]; no diol): -15.7 kJ/Mole EPOXIDE

More lines, main results first:

- ΔH ([3]; MP-diol, Epoxy:Diol 1:1): -78.4 kJ/mole epoxide
- ΔH ([3]; MP-diol, Epoxy:Diol 3:1): -49.0 kJ/mole epoxide
- ΔH ([3]; Rucoflex 107, Epoxy:Diol 1:1): -68.9 kJ/mole epoxide
- ΔH ([3]; Rucoflex 107, Epoxy:Diol 3:1): -42.9 kJ/mole epoxide
- ΔH [3, 4]: -79.4 kJ/mole epoxide
- ΔH [3, 5]: -14.3 kJ/mole epoxide
- ΔH ([3]; SynFac 8031, Epoxy:Diol 1:1): -67.8 kJ/mole epoxide
- ΔH ([3]; SynFac 8031, Epoxy:Diol 3:1): -39.7 kJ/mole epoxide
- ΔH ([3]; Tone 0201, Epoxy:Diol 1:1): -62.0 kJ/mole epoxide
- ΔH ([3]; Tone 0201, Epoxy:Diol 1:3): -44.0 kJ/mole epoxide
- ΔH ([3]; Tone 0201, Epoxy:Diol 3:1): -30.3 kJ/mole epoxide
- ΔH ([3]; no diol, 1% UVI-6974, 25 °C): -10.0 kJ/mole epoxide
- extents of cure ([3]; range over all diols and ratios of Tables 1 and 2): -79.4 to -10.0 kJ
Compound: O=C(OCC1CCC2OC2C1)C1CCC2OC2C1 (stereo not drawn) [ERL-4221]
- Tmax ([3]; MP-diol, Epoxy:Diol 1:1): 21.20 s
- Tmax ([3]; MP-diol, Epoxy:Diol 3:1): 6.39 s
- Tmax ([3]; Rucoflex 107, Epoxy:Diol 1:1): 6.81 s
- Tmax ([3]; Rucoflex 107, Epoxy:Diol 3:1): 2.10 s
- Tmax [3, 4]: 17.10 s
- Tmax [3, 5]: 5.34 s
- Tmax ([3]; SynFac 8031, Epoxy:Diol 1:1): 13.47 s
- Tmax ([3]; SynFac 8031, Epoxy:Diol 3:1): 13.17 s
- Tmax ([3]; Tone 0201, Epoxy:Diol 1:1): 9.21 s
- Tmax ([3]; Tone 0201, Epoxy:Diol 1:3): 42.66 s
- Tmax ([3]; Tone 0201, Epoxy:Diol 3:1): 6.00 s
- Tmax ([3]; no diol, 1% UVI-6974, 25 °C): 4.62 s

- ΔH ([2]; MP-diol, Epoxy:Diol 1:1): -27.5 kJ/Mole EPOXIDE
- ΔH ([2]; MP-diol, Epoxy:Diol 3:1): -16.1 kJ/Mole EPOXIDE
- ΔH ([2]; Tone polyol, Epoxy:Diol 1:1): -55.6 kJ/Mole EPOXIDE
- ΔH ([2]; Tone polyol, Epoxy:Diol 3:1): -30.8 kJ/Mole EPOXIDE
- ΔH ([2]; no diol): 0 kJ/Mole EPOXIDE
Compound: CC(=O)OCC1OC1c1ccccc1 (stereo not drawn) [cinnamyl acetate epoxy, cinnamyl acetate epoxide]

- ΔH ([2]; MP-diol, Epoxy:Diol 1:1): -57.8 kJ/Mole EPOXIDE
- ΔH ([2]; MP-diol, Epoxy:Diol 3:1): -63.6 kJ/Mole EPOXIDE
- ΔH ([2]; Tone polyol, Epoxy:Diol 1:1): -98,8 kJ/Mole EPOXIDE
- ΔH ([2]; Tone polyol, Epoxy:Diol 3:1): -82,4 kJ/Mole EPOXIDE
- ΔH ([2]; no diol): -43.9 kJ/Mole EPOXIDE
Compound: COCC1OC1c1ccccc1 (stereo not drawn) [cinnamyl methyl ether epoxy, cinnamyl methyl ether epoxide]

- advancement of the epoxide ([1]; after one year at room temperature): no advancement
Compound: divinylbenzene dioxide [Example 2]
